Data published in patent publication US20230138851A1, “NOVEL ALKYNE DERIVATIVES” (CARNA BIOSCIENCES, INC., priority 2020, published 2023).

Assays:
Format in all cases: biochemical
DYRK2 = molecular target: T1, DYRK2 (Homo sapiens, UniProt Q92630); experiment: Inhibition test on activity of DYRK family, mobility shift assay (MSA), DYRK2; details: ATP 40 μM, FITC-labeled DYRKtide peptide substrate, room temperature 1 hour; for IC50: read-out: Inhibitory Activity 2 (IC50 against DYRK2)
T1 construct: purchased Carna Biosciences, Inc. 04-132
T1 sequence (Q92630 1-601): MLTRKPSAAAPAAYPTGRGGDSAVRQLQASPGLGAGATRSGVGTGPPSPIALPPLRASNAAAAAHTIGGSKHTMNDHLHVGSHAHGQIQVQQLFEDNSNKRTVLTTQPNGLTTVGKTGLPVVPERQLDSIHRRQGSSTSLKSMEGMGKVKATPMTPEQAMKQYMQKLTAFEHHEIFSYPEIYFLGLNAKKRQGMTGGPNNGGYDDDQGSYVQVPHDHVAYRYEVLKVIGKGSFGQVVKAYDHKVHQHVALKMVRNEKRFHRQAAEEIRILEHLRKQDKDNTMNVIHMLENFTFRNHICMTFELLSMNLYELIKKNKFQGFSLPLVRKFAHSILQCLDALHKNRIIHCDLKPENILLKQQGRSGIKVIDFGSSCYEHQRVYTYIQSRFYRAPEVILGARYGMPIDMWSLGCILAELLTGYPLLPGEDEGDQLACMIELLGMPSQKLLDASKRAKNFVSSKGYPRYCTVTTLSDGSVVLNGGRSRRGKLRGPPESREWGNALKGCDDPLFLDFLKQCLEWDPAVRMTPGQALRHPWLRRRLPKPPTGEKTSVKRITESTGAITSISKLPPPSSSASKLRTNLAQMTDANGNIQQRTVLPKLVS
Protocol: (§1) [Inhibition Test on Activity of DYRK Family (DYRK1A, DYRK1B, DYRK2, and […])]
(§2) (Method for Measuring Kinase Activity)
(§3) The kinase activity was measured by mobility shift assay (MSA) method using QuickScout Screening Assist™ MSA (commercially available kit manufactured by Carna Biosciences, Inc.). The substrate of the kinase reaction used was an FITC-labeled DYRKtide peptide included in the kit. An assay buffer [20 mM HEPES, 0.01% Triton X-100™, 2 mM dithiothreitol, pH 7.5] was used to create a substrate mixture solution with a substrate (4 μM), MgCl2 (20 mM), and ATP (DYRK1A: 100 μM; DYRK1B: 200 μM; DYRK2: 40 μM; and DYRK3: 20 μM). In addition, kinases (DYRK1A: manufactured by Carna Biosciences, Inc., Cat. No. 04-130; DYRK1B: manufactured by Carna Biosciences, Inc., Cat. No. 04-131; DYRK2; manufactured by Carna Biosciences, Inc., Cat. No. 04-132; and DYRK3; manufactured by Carna Biosciences, Inc., Cat. No. 04-133) were diluted with the assay buffer to prepare enzyme solutions (DYRK1A: 0.2 ng/μL; DYRK1B: 0.08 ng/μL; DYRK2: 0.04 ng/μL; and DYRK3: 0.25 ng/μL). The 10 mM solution of the test compound in DMSO was further diluted with DMSO to 10 levels of the concentration (0.00003 mM, 0.0001 mM, 0.0003 mM, 0.001 mM, 0.003 mM, 0.01 mM, 0.03 mM, 0.1 mM, 0.3 mM, and 1 mM), each of which was subjected to 25-fold dilution with the assay buffer to obtain a drug solution (4% DMSO solution). 5 μL of the drug solution or a control solution (4% DMSO-assay buffer), 5 μL of the substrate mixture solution, and 10 μL of the enzyme solution were mixed in the wells of a polypropylene 384-well plate and allowed to react at room temperature for 1 hour, and then the reaction was quenched by adding 60 μL of the termination buffer included in the kit. Subsequently, the quantities of the substrates (S) and the phosphorylated substrate (P) in the reaction solution were measured using LabChip EZ Reader II system (manufactured by Caliper Life Sciences) according to the protocol of the assay kit.
(§4) (Method for Evaluating Inhibitory Activity)
(§5) The heights of the peaks of the “substrate” and the “phosphorylated substrate” were expressed as S and P, respectively, and a blank containing the assay buffer instead of the enzyme solution was also measured.
(§6) The inhibition rate (%) of the test compound was calculated according to the following equation:
(§7) Inhibition rate (%)=(1−(C−A)/(B−A))×100
(§8) wherein, A, B, and C represent P/(P+S) of the blank well, P/(P+S) of the control solution well, and P/(P+S) of the compound-containing well, respectively.
(§9) The IC50 value was calculated via a regression analysis of the inhibition rate and the test compound concentration (logarithmic value).
(§10) The inhibiting activities of representative compounds of the present invention are shown against DYRK1A, DYRK1B, DYRK2, and DYRK3 in Tables 7 and 8. The kinase activity inhibitory effect was indicated with the mark *** at an IC50 value of less than 0.01 μM; the mark ** at 0.01 μM or more and less than 0.1 μM; the mark * at 0.1 μM or more and less than 1 μM; and the mark — at 1 μM or more (N.D. indicates not measured).

DYRK1A = molecular target: T2, DYRK1A (Homo sapiens, UniProt Q13627); experiment: Inhibition test on activity of DYRK family, mobility shift assay (MSA), DYRK1A; details: ATP 100 μM, FITC-labeled DYRKtide peptide substrate, room temperature 1 hour; for IC50: read-out: Inhibitory Activity 1a (IC50 against DYRK1A)
T2 construct: purchased Carna Biosciences, Inc. 04-130
Protocol: as §1, §2, §3, §4, §5, §6, §7, §8, §9, §10

DYRK3 = molecular target: T3, DYRK3 (Homo sapiens, UniProt O43781); experiment: Inhibition test on activity of DYRK family, mobility shift assay (MSA), DYRK3; details: ATP 20 μM, FITC-labeled DYRKtide peptide substrate, room temperature 1 hour; for IC50: read-out: Inhibitory Activity 3 (IC50 against DYRK3)
T3 construct: purchased Carna Biosciences, Inc. 04-133
T3 sequence (O43781 1-588): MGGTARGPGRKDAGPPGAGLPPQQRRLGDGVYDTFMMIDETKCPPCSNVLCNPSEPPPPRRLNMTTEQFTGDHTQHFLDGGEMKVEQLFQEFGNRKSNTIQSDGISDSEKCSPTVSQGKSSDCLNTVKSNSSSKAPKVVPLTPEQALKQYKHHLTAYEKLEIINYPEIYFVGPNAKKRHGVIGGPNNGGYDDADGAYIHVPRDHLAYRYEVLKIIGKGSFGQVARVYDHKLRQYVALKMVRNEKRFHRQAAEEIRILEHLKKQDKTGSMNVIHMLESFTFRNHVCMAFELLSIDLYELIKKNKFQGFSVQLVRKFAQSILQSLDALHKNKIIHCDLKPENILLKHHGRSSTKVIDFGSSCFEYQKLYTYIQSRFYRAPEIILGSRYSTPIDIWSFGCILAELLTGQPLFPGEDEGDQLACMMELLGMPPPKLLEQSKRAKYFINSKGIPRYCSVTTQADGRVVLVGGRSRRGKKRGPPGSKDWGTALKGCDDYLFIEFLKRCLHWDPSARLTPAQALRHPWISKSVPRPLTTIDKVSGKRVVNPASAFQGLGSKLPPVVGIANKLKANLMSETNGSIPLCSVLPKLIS
Protocol: as §1, §2, §3, §4, §5, §6, §7, §8, §9, §10

Structure (SMILES) | IC50 (DYRK2) [µM] | Inhibitory Activity 1a (IC50 against DYRK1A) (DYRK1A) | IC50 (DYRK3) [µM] | Inhibitory Activity 2 (IC50 against DYRK2) (DYRK2) | Inhibitory Activity 3 (IC50 against DYRK3) (DYRK3) | IC50 (DYRK1A) [µM]
CC#CC1CNC(=O)N1c1nc2c(ccc3nccn32)s1 (racemic) [Example 6, (RS)-1-(imidazo[1,2-a]thiazolo[5,4-e]pyridin-2-yl)-5-(prop-1-yn-1-yl)imidazolidin-2-one] | 0.1 to 1 | * * * | 0.1 to 1 |  |  | 
CC#CC1CNC(=O)N1c1nc2c(ccc3ocnc32)s1 (racemic) [Example 7, (RS)-5-(prop-1-yn-1-yl)-1-(thiazolo[5′,4′:5,6]benzo[1,2-d]oxazole-7-yl)imidazolidin-2-one] | ≥ 1 | * * * | ≥ 1 |  |  | 
C[Si](C)(C)C#CC1CNC(=O)N1c1nc2c3c(ccc2s1)OCC3 (racemic) [Example 11, (RS)-1-(7,8-dihydrobenzofuro[4,5-d]thiazol-2-yl)-5-[(trimethylsilyl)ethynyl]imidazolidin-2-one] | 0.1 to 1 | * * | 0.1 to 1 |  |  | 
C#CC1CNC(=O)N1c1nc2c3c(ccc2s1)OCC3 (racemic) [Example 12, (RS)-1-(7,8-dihydrobenzofuro[4,5-d]thiazol-2-yl)-5-ethynylimidazolidin-2-on] |  | * * * |  | * * | * * | 
O=C1NCC(C#Cc2ccccc2)N1c1nc2c3c(ccc2s1)OCC3 (racemic) [Example 15, (RS)-1-(7,8-dihydrobenzofuro[4,5-d]thiazol-2-yl)-5-(phenylethynyl)imidazolidin-2-one] | ≥ 1 |  | ≥ 1 |  |  | 0.1 to 1
CN(C)CC#CC1CNC(=O)N1c1nc2c3c(ccc2s1)OCC3 (racemic) [Example 18, (RS)-1-(7,8-dihydrobenzofuro[4,5-d]thiazol-2-yl)-5-[3-(dimethylamino)prop-1-yn-1-yl]imidazolidin-2-one] | ≥ 1 | * * | 0.1 to 1 |  |  | 
O=C1NCC(C#CCO)N1c1nc2c3c(ccc2s1)OCC3 (racemic) [Example 19, (RS)-1-(7,8-dihydrobenzofuro[4,5-d]thiazol-2-yl)-5-(3-hydroxyprop-1-yn-1-yl)imidazolidin-2-one] | 0.1 to 1 | * * * | 0.1 to 1 |  |  | 
COCC#CC1CNC(=O)N1c1nc2c3c(ccc2s1)OCC3 (racemic) [Example 20, (RS)-1-(7,8-dihydrobenzofuro[4,5-d]thiazol-2-yl)-5-(3-methoxyprop-1-yn-1-yl)imidazolidin-2-one] | ≥ 1 |  | ≥ 1 |  |  | 0.1 to 1
O=C1NCC(C#CC2CC2)N1c1nc2c3c(ccc2s1)OCC3 (racemic) [Example 21, (RS)-5-(cyclopropylethynyl)-1-(7,8-dihydrobenzofuro[4,5-d]thiazol-2-yl)imidazolidin-2-one] | ≥ 1 | * * * | 0.1 to 1 |  |  | 
CC(C)(O)C#CC1CNC(=O)N1c1nc2c3c(ccc2s1)OCC3 (racemic) [Example 22, (RS)-1-(7,8-dihydrobenzofuro[4,5-d]thiazol-2-yl)-5-(3-hydroxy-3-methylbut-1-yn-1-yl)imidazolidin-2-one] | ≥ 1 | * * | ≥ 1 |  |  | 
CC#CC1CNC(=O)N1c1nc2c(ccc3nc[nH]c32)s1 (racemic) [Example 35, (RS)-1-(8H-imidazo[4′,5′:5,6]benz[1,2-d]thiazol-2-yl)-5-(prop-1-yn-1-yl)imidazolidin-2-one] | 0.1 to 1 | ** * | 0.1 to 1 |  |  | 
CC#CC1CNC(=O)N1c1nc2c(ccc3ncn(CC(C)(C)O)c32)s1 (racemic) [Example 37, (RS)-1-[8-(2-hydroxy-2-methylpropyl)-8H-imidazo[4′,5′;5,6]benz[1,2-d]thiazol-2-yl]-5-(prop-1-yn-1-yl)imidazolidin-2-one] | 0.1 to 1 | * * |  |  | * * | 
CC#CC1CNC(=O)N1c1nc2c3c(ccc2s1)OCC(C)N3C (racemic) [Example 40, (RS)-1-((RS)-8,9-dimethyl-8,9-dihydro-7H-thiazolo[4′,5′:3,4]benz[1,2-b][1,4]oxazin-2-yl)-5-(prop-1-yn-1-yl)imidazolidin-2-one] | 0.1 to 1 | * * * | 0.1 to 1 |  |  | 
CC#CC1CNC(=O)N1c1nc2c3c(ccc2s1)OCCN3CCO (racemic) [Example 41, (RS)-1-[9-(2-hydroxyethyl)-8,9-dihydro-7H-thiazolo[4′,5′:3,4]benz[1,2-b][1,4]oxazin-2-yl]-5-(prop-1-yn-1-yl)imidazolidin-2-one] | 0.1 to 1 | * * * | 0.1 to 1 |  |  | 
CC#CC1CNC(=O)N1c1nc2c3c(ccc2s1)OCCN3CCOC (racemic) [Example 42, (RS)-1-[9-(2-methoxyethyl)-8,9-dihydro-7H-thiazolo[4′,5′:3,4]benz[1,2-b][1,4]oxazin-2-yl]-5-(prop-1-yn-1-yl)imidazolidin-2-one] | ≥ 1 | * * * | 0.1 to 1 |  |  | 
